Measurements published in the supplement of paper PMC10307832.

Tests used:
Assay in all cases: relative viability (nuclei count vs DMSO), 5 days (fraction); higher = more cells survive
Kobe2602 + Palbociclib = compound: C1=CC(=CC=C1NC(=S)NNC2=C(C=C(C=C2[N+](=O)[O-])C(F)(F)F)[N+](=O)[O-])F [Kobe2602] + CC(=O)c1c(C)c2cnc(Nc3ccc(N4CCNCC4)cn3)nc2n(C2CCCC2)c1=O [Palbociclib] (partner 0.5 µM)
How it was run: (§1)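 Lung cancer cell lines were seeded in 1536-well plates and dosed by pin tool the next day, with either a single drug or a fixed anchor-drug dose combined with five library-drug doses (not always all listed) spaced in √10 steps. Five days later, one step fixed the cells and stained their nuclei (final 0.05% Triton X-100, 1% formaldehyde, 1 ug/ml Hoechst), and nuclei were counted on 4× images. Relative viability is the nuclei count in treated wells divided by the count in vehicle wells, and each value is the median of duplicate plates.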

[1] = compound: COc1cc2nccc(Oc3ccc(NC(=O)C4(C(=O)Nc5ccc(F)cc5)CC4)cc3)c2cc1OC [Cabozantinib] + N=C(N)NC(=N)NCCc1ccccc1 [Phenformin] (partner 250 µM)
How it was run: as §1

Cabozantinib + Olaparib = compound: COc1cc2nccc(Oc3ccc(NC(=O)C4(C(=O)Nc5ccc(F)cc5)CC4)cc3)c2cc1OC [Cabozantinib] + O=C(c1cc(Cc2n[nH]c(=O)c3ccccc23)ccc1F)N1CCN(C(=O)C2CC2)CC1 [Olaparib] (partner 8 µM)
How it was run: as §1

Zosuquidar + Phenformin = compound: O[C@@H](COc1cccc2ncccc12)CN1CCN([C@@H]2c3ccccc3[C@@H]3[C@H](c4ccccc42)C3(F)F)CC1 [Zosuquidar] + N=C(N)NC(=N)NCCc1ccccc1 [Phenformin] (partner 250 µM)
How it was run: as §1

| Cell Line | relative viability (Kobe2602 + Palbociclib; first compound 0.2 µM) | relative viability (Kobe2602 + Palbociclib; first compound 0.6325 µM) | relative viability (Kobe2602 + Palbociclib; first compound 2 µM) | relative viability (Kobe2602 + Palbociclib; first compound 6.325 µM) | relative viability (Kobe2602 + Palbociclib; first compound 20 µM) | relative viability ([1]; first compound 0.02 µM) | relative viability ([1]; first compound 0.06325 µM) | relative viability ([1]; first compound 0.2 µM) | relative viability ([1]; first compound 0.6325 µM) | relative viability ([1]; first compound 2 µM) | relative viability (Cabozantinib + Olaparib; first compound 0.06325 µM) | relative viability (Cabozantinib + Olaparib; first compound 0.2 µM) | relative viability (Cabozantinib + Olaparib; first compound 0.6325 µM) | relative viability (Cabozantinib + Olaparib; first compound 2 µM) | relative viability (Zosuquidar + Phenformin; first compound 0.01 µM) | relative viability (Zosuquidar + Phenformin; first compound 0.03162 µM) | relative viability (Zosuquidar + Phenformin; first compound 0.1 µM) | relative viability (Zosuquidar + Phenformin; first compound 0.3162 µM) | relative viability (Zosuquidar + Phenformin; first compound 1 µM) | relative viability (Cabozantinib + Olaparib; first compound 0.02 µM) |
| --- | --- | --- | --- | --- | --- | --- | --- | --- | --- | --- | --- | --- | --- | --- | --- | --- | --- | --- | --- | --- |
| ABC-1 | 0.579 | 0.762 | 0.559 | 0.853 | 0.739 | 0.244 | 0.276 | 0.235 | 0.28 | 0.218 | 0.786 | 0.939 | 0.598 | 0.816 | 0.253 | 0.257 | 0.252 | 0.256 | 0.266 | – |
| IA-LM | – | – | – | – | – | – | – | – | – | – | 0.849 | 0.801 | 1.06 | 0.925 | – | – | – | – | – | 0.817 |
| NCI-H520 | 0.239 | 0.217 | 0.249 | 0.231 | 0.205 | 0.608 | 0.598 | 0.65 | 0.672 | 0.432 | 0.341 | 0.386 | 0.42 | 0.228 | 0.567 | 0.579 | – | 0.658 | 0.565 | 0.369 |
| NCI-H1915 | 0.512 | 0.558 | 0.578 | 0.536 | 0.57 | 0.364 | 0.389 | 0.374 | 0.373 | 0.362 | 0.28 | 0.283 | 0.239 | 0.255 | 0.377 | 0.386 | 0.347 | 0.38 | 0.37 | 0.296 |
| NCI-H1299 | – | – | – | – | – | – | – | – | – | – | 0.988 | 0.964 | 0.971 | 1.09 | – | – | – | – | – | 0.969 |
| HCC-827 | 0.528 | 0.574 | 0.621 | 0.489 | 0.53 | 0.425 | 0.441 | – | 0.417 | 0.381 | 0.786 | – | 0.624 | 0.562 | 0.351 | 0.467 | 0.333 | 0.413 | 0.398 | 0.643 |
| EMC-BAC-2 | 0.522 | 0.543 | 0.494 | 0.566 | 0.525 | 0.475 | 0.589 | 0.582 | 0.516 | 0.476 | 0.499 | 0.531 | 0.472 | 0.485 | 0.523 | 0.541 | 0.517 | 0.602 | 0.537 | 0.496 |
| NCI-H650 | 0.31 | 0.357 | 0.344 | 0.402 | 0.372 | – | 0.497 | 0.454 | 0.465 | 0.404 | 0.373 | 0.398 | 0.386 | 0.35 | 0.464 | 0.42 | 0.379 | 0.482 | 0.448 | 0.38 |
| NCI-H1792 | 0.634 | 0.707 | 0.653 | 0.671 | 0.682 | – | 0.374 | 0.37 | 0.254 | 0.251 | 0.56 | 0.419 | 0.317 | 0.373 | 0.35 | 0.287 | 0.279 | 0.31 | 0.295 | – |
